According to ChEMBL document CHEMBL1125222, “Activity of N6-substituted 2-chloroadenosines at A1 and A2 adenosine receptors” (J Med Chem, 1991):

Key:
[1] = Effective concentration against A2AR mediated P12 adenylatencyclase activity; assay type: functional, Rattus norvegicus
[2] = Concentration required to increase Adenosine A2A receptor mediated P12 Adenylate cyclase activity; assay type: functional, Rattus norvegicus
Adenosine receptor A1 [3] = target: T1, Adenosine receptor A1 (Rattus norvegicus, UniProt P25099); assay: Inhibition of [3H]- (R)-P1A binding to adenosine A1 receptor
T1 sequence (P25099 whole entry): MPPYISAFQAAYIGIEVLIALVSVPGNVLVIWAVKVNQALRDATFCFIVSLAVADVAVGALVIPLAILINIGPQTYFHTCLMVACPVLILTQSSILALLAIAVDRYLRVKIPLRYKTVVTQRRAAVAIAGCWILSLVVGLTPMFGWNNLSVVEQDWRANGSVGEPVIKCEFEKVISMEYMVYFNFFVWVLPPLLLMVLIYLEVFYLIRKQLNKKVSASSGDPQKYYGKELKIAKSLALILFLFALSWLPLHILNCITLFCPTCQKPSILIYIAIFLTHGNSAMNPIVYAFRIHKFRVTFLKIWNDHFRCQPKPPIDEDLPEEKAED

Adenosine A2 receptor = Adenosine A2 receptor (Rattus norvegicus, UniProt P29276+P30543); assay: Inhibition of [3H]- NECA binding to adenosine receptor A2; assay type: protein assay
Adenosine receptor A1 [4] = target: T1, Adenosine receptor A1

In the case of OC[C@H]1O[C@@H](n2cnc3c(NC4CCCC4)nc(Cl)nc32)[C@H](O)[C@@H]1O, the EC50 [1] is reported as 0.73 µM.
Nc1nc(Cl)nc2c1ncn2[C@@H]1O[C@H](CO)[C@@H](O)[C@H]1O gave an EC50 [2] of 0.46 µM and a Ki (Adenosine receptor A1 [3]) of 0.0067 µM.
In the case of C[C@@H](Cc1ccccc1)Nc1nc(Cl)nc2c1ncn2[C@@H]1O[C@H](CO)[C@@H](O)[C@H]1O, the EC50 [1] is reported as 3 µM, the Ki (Adenosine A2 receptor) is reported as 3 µM and the Ki (Adenosine receptor A1 [4]) is reported as 0.02 µM.
For C[C@H](Cc1ccccc1)Nc1nc(Cl)nc2c1ncn2[C@@H]1O[C@H](CO)[C@@H](O)[C@H]1O, the EC50 [1] was 0.32 µM, the Ki (Adenosine A2 receptor) was 0.22 µM and the Ki (Adenosine receptor A1 [4]) was 0.0014 µM.
Compound OC[C@H]1OC(n2cnc3c(Nc4ccccc4)nc(Cl)nc32)[C@H](O)[C@@H]1O (stereo not given in full) has an EC50 [1] of 1.6 µM, a Ki (Adenosine A2 receptor) of 1.7 µM and a Ki (Adenosine receptor A1 [4]) of 0.0076 µM.
Work on C[C@H](Cc1ccccc1)Nc1ncnc2c1ncn2[C@@H]1O[C@H](CO)[C@@H](O)[C@H]1O [(R)-PIA] yielded an EC50 [1] of 0.98 µM.
C[C@@H](Cc1ccccc1)Nc1ncnc2c1ncn2[C@@H]1O[C@H](CO)[C@@H](O)[C@H]1O [(S)-PIA] showed an EC50 [2] of 4.2 µM.
Nc1ncnc2c1ncn2[C@@H]1O[C@H](CO)[C@@H](O)[C@H]1O [ADENOSINE] showed an EC50 [2] of 0.15 µM.
OC[C@H]1O[C@@H](n2cnc3c(NC4CCCC4)ncnc32)[C@H](O)[C@@H]1O [N6-CYCLOPENTYLADENOSINE] showed an EC50 [1] of 3.2 µM and a Ki (Adenosine A2 receptor) of 0.51 µM.
Work on OC[C@H]1O[C@@H](n2cnc3c(Nc4ccccc4)ncnc32)[C@H](O)[C@@H]1O [N6-PHENYLADENOSINE] yielded an EC50 [1] of 3.1 µM, a Ki (Adenosine A2 receptor) of 1.2 µM and a Ki (Adenosine receptor A1 [4]) of 0.016 µM.
